Measured values taken from patent publication US8592421B2, “Cyclic bioisosters of purine system derivatives and a pharmaceutical composition based thereon” (priority 2003, dated 2013).

Assays:
[1] = Electrochemical activity: polarographic reduction on mercury dripping electrode; format: physicochemical; settings: for number of electrons participating in the reduction reaction: calculated with Geirovsky-Ilkovich equation; for i: 2.0% sodium chloride background, 9·10^−4 M; for i / −E1/2: 37° C., forward trace, average for the group of compounds; for −E1/2: vs SCE; for half-wave potential more positive at reverse stroke compared to forward stroke: polarograms of reverse stroke
Description: The study was carried out on a general-purpose polarograph PU-1 with a two-coordinate recorder of the “LKD” type using a three-electrode thermostatically controlled polarographic cell and mercury dripping electrode (MDE) with forced separation of the drop and a dropping period of 0.5 second. A platinum wire was used as an auxiliary electrode and a saturated calomel electrode (SCE) was used as a control electrode.
2.0% solutions of sodium chloride having pH 7.0, 7.2, 7.4, 7.6 were used as a background; the pH values of the background solution were corrected by a solution of sodium hydroxide. The polarographic cell was filled with 5.0 ml of the background solution and for 5 minutes was purged with nitrogen for removing the dissolved oxygen. Then 0.5 ml of solution of the studied substance was added to the background solution, and the polarogram was recorded as a polarographic wave. The concentration of the compounds in the polarographic cell was 9·10^−4 M.
The pH was measured on the pH-meter with an accuracy of +0.05 pH units. The polarographic measurements were carried out at a temperature of 37° C. The recording of polarograms of the investigated materials was effected under conditions of DC current at a scanning rate of the potential 10.0 mV/s with a active scanning stroke from a potential 0 to −0.5 V and sweep retrace from a −0.5 V to 0. The electric-current sensitivity was 5.0 mkA. The scale by the coordinate of the potentials was 50.0 mV/cm. The values of potentials of the half-wave E1/2 of the investigated materials are given with respect to the SCE potential.
The polarogram parameters such as a limiting current ilim and E1/2 were determined by the graphic method. The number of electrons participating in the reaction was calculated on the basis of the analysis of the polarographic wave using the Geirovsky-Ilkovich equation.
The calculation of the number of electrons participating in the reduction reaction was effected using the Geirovsky-Ilkovich equation: […]

[2] = tested on: embryonic fibroblasts of mouse NIH-3T3; experiment: Effect on endocellular pHi of fibroblasts (microspectrofluorimetry with FDA / BCECF-AM); format: cell-based; settings: for rise of pHi: fibroblasts in an attached spread state; for change of pHi: medium DME without blood serum, 20 minutes; for increase of pHi of cytosol: medium with 10.0% blood serum, 20 minutes after addition
Description: The effect of the compounds according to the invention on the endocellular pH, embryonic fibroblasts of mouse NIH-3T3 supplied by the All-Russian Collection of Cellular Cultures of the Institute of Cytology of the Russian Academy of Sciences St. Petersburg was investigated. The cells were grown in the DMEM (Sigma) medium containing 2.2 g/l of sodium bicarbonate with addition of 80.0 mkg/ml of gentamicin and 10.0% embryonal veal serum at a temperature of 37° C. in an atmosphere containing 5.0% of carbon dioxide. For these experiments use was also made of a medium buffer with 5.0 mM of HEPES and 15.0 mM of sodium bicarbonate without serum or with addition of 5.0% serum. The cells were calculated with the help of a hemocytometer. A share of the dead cells was determined by colouring trypan blue.
The measurements of the endocellular pHi were carried out with the help of colorants FDA (Sigma) and BCECF-AM (Calbiochem) on a microspectrofluorimeter by a standard technique (Koshevoy Yu. V., Akatov V. S., Grobova M. E. Microspectrofluorimeter for measuring endocellular pH (micro pH)”. Devices and equipment for studies in the field of physical-and-chemical biology and biotechnology. Pushchino, 1990. P. 8-14).
The cells at a temperature of 37° C. were colored within 5 minutes with 5.0 mkM PDA that before the colouring was prepared from a 10.0 mM solution in acetone by dilution for 30 minutes in a phosphatic buffer to 0.1 mM or 2.0 mkM 1.0 mM solution BCECF-AM in DMSO.
The two-wave method of determining pHi was used based on the ratio intensities of fluorescence of the cells on two wavelengths (Akatov V. S. et all), “Endocellular pH and substrate dependence of proliferation of fibroblasts of Chinese hamster, Cytology, 1991, 33 (7), p. 86-94). The fluorescence was excited by light at λ=490 nm, the emission was recorded simultaneously with two photomultipliers on wavelengths λ=535 nm and λ=570 nm. The K-ratio of the fluorescence on two wavelengths was determined with a deduction of the background fluorescence of the medium near the investigated cells for 40-60 individual cells, which are then averaged taking into account the measurement error. A thermostatically controlled table was used that allowed measurements to be conducted at a temperature of 37° C. An account was taken for the photodynamic damage of the pigmented cells during long-time continuous illumination by excited light. The readings were taken from a section of the preparation exposed to light for not more than 5 minutes.
The calibration curves for determining the absolute pHi values by magnitude K were constructed using the Thomas technique (Thomas J. A., Bushbaum R. N., Zimniak A. w Racker E. “Intracellular pH measurements in Ehrlich ascites tumor cells utilizing spectroscopic probe generated in situ”, Biochemistry, 1979, v. 18, p. 2210-2218), for which case the pigmented cells treated for 5-10 minutes with carboxyacidic nigericyn (Calbiochem) at a concentration of 5-10 mkg/ml was placed in a solution with a high content of potassium—130 mM KCl, 1.0 mM MgCl2, 20.0 mM of HEPES) and with pH values from 6.2 to 7.6. The K values were measured in the media with different pH assuming that pHi of the cells equals to the pH of the medium due to the action of nigericyn, which exchanges potassium ions for protons and at a high content of potassium in the medium counterbalances the pH of the medium and cells. Calibration curves were used based on the fluorescence of same medium with addition of 5.0 mkM of fluorescence or BCECF were used to the control the stability of the of the instrument readings.
The cells were colored by pigment BCECF-AM and pHi was measured 10 minutes after incubation in the medium with an appropriate pH value. […]

Question: What does the source list for `O=c1[nH][nH]c(=O)c2ncccc12.[Na]` [Compound 7, sodium salt of pyrido[2,3-d]-6H-pyridazine-5,8-dione]?
Answer: number of electrons participating in the reduction reaction [1]: 3.72; i ([1]; pH 7.0): 0.26 ± 0.04 mkA; −E1/2 ([1]; pH 7.0): 0.11 ± 0.02 V; i ([1]; pH 7.2): 0.31 ± 0.02 mkA; −E1/2 ([1]; pH 7.2): 0.11 ± 0.03 V; i ([1]; pH 7.4): 0.27 ± 0.03 mkA; −E1/2 ([1]; pH 7.4): 0.105 ± 0.01 V; i ([1]; pH 7.6): 0.30 ± 0.01 mkA; −E1/2 ([1]; pH 7.6): 0.105 ± 0.02 V; half-wave potential more positive at reverse stroke compared to forward stroke [1]: 25.0 mV; rise of pHi ([2]; 2.0 mkg/ml, on the average): 0.10 unit pHi; rise of pHi ([2]; 20.0 mkg/ml, on the average): 0.07 unit pHi; change of pHi ([2]; 0.02 mkg/ml): no effect was found; change of pHi ([2]; 0.2 mkg/ml): no effect was found; change of pHi ([2]; 2.0 mkg/ml, on the average): 0.08 unit pHi; change of pHi ([2]; 20.0 mkg/ml, on the average): 0.08 unit pHi; change of pHi ([2]; 200 mkg/ml): no effect was found; change of pHi ([2]; 1000 mkg/ml): no effect was found; increase of pHi of cytosol ([2]; 0.02 mkg/ml): do not initiate a change of pH; increase of pHi of cytosol ([2]; 0.2 mkg/ml, on the average): 0.1 unit pH; increase of pHi of cytosol ([2]; 2.0 mkg/ml, on the average): 0.12 unit pH; increase of pHi of cytosol ([2]; 20.0 mkg/ml): do not initiate a change of pH

Question: For `O=C([O-])c1ccc2c(=O)[nH][nH]c(=O)c2c1.O=C([O-])c1ccc2c(=O)[nH][nH]c(=O)c2c1.[Na+].[Na+]` [Compound 18, disodium salt of 6-carboxy-benzo[d]-3H-pyridazine-1,4-dione], which “number of electrons participating in the reduction reaction” value [1] is on record?
Answer: 4.09

Question: And the i ([1]; pH 7.0)?
Answer: 0.23 ± 0.03 mkA

Question: And the “−E1/2” value ([1]; pH 7.0)?
Answer: 0.092 ± 0.02 V

Question: And the i ([1]; pH 7.2)?
Answer: 0.30 ± 0.01 mkA

Question: And the “−E1/2” value ([1]; pH 7.2)?
Answer: 0.09 ± 0.01 V

Question: And the i ([1]; pH 7.4)?
Answer: 0.29 ± 0.02 mkA

Question: And the “−E1/2” value ([1]; pH 7.4)?
Answer: 0.092 ± 0.02 V

Question: What about the i ([1]; pH 7.6) of the same compound?
Answer: 0.31 ± 0.02 mkA

Question: And the “−E1/2” value ([1]; pH 7.6)?
Answer: 0.09 ± 0.01 V

Question: And the “half-wave potential more positive at reverse stroke compared to forward stroke” value [1]?
Answer: 30.0 mV

Question: What about the “rise of pHi” value ([2]; 2.0 mkg/ml, on the average) of the same compound?
Answer: 0.10 unit pHi

Question: What about the “rise of pHi” value ([2]; 20.0 mkg/ml, on the average) of the same compound?
Answer: 0.07 unit pHi

Question: And the “change of pHi” value ([2]; 0.02 mkg/ml)?
Answer: no effect was found

Question: What about the “change of pHi” value ([2]; 0.2 mkg/ml) of the same compound?
Answer: no effect was found

Question: And the “change of pHi” value ([2]; 2.0 mkg/ml, on the average)?
Answer: 0.08 unit pHi

Question: What about the “change of pHi” value ([2]; 20.0 mkg/ml, on the average) of the same compound?
Answer: 0.08 unit pHi

Question: And the “change of pHi” value ([2]; 200 mkg/ml)?
Answer: no effect was found

Question: What about the “change of pHi” value ([2]; 1000 mkg/ml) of the same compound?
Answer: no effect was found

Question: And the “increase of pHi of cytosol” value ([2]; 0.02 mkg/ml)?
Answer: do not initiate a change of pH

Question: And the “increase of pHi of cytosol” value ([2]; 0.2 mkg/ml, on the average)?
Answer: 0.1 unit pH

Question: What about the “increase of pHi of cytosol” value ([2]; 2.0 mkg/ml, on the average) of the same compound?
Answer: 0.12 unit pH

Question: And the “increase of pHi of cytosol” value ([2]; 20.0 mkg/ml)?
Answer: do not initiate a change of pH

Question: With `O=c1[nH][nH]c(=O)c2ncncc12.[Li]` [Compound 35, lithium salt of pyrimido[4,5-d]-6H-pyridazine-5,8-dione] as the compound, how does the “number of electrons participating in the reduction reaction” value [1] read?
Answer: 3.5

Question: And the i ([1]; pH 7.0)?
Answer: 0.30 ± 0.05 mkA

Question: And the “−E1/2” value ([1]; pH 7.0)?
Answer: 0.08 ± 0.02 V

Question: And the i ([1]; pH 7.2)?
Answer: 0.26 ± 0.02 mkA

Question: What about the “−E1/2” value ([1]; pH 7.2) of the same compound?
Answer: 0.085 ± 0.015 V

Question: What about the i ([1]; pH 7.4) of the same compound?
Answer: 0.30 ± 0.03 mkA

Question: What about the “−E1/2” value ([1]; pH 7.4) of the same compound?
Answer: 0.085 ± 0.02 V

Question: And the i ([1]; pH 7.6)?
Answer: 0.30 ± 0.02 mkA

Question: And the “−E1/2” value ([1]; pH 7.6)?
Answer: 0.09 ± 0.02 V

Question: And the “half-wave potential more positive at reverse stroke compared to forward stroke” value [1]?
Answer: 27.0 mV

Question: And the “rise of pHi” value ([2]; 2.0 mkg/ml, on the average)?
Answer: 0.10 unit pHi

Question: And the “rise of pHi” value ([2]; 20.0 mkg/ml, on the average)?
Answer: 0.07 unit pHi

Question: And the “change of pHi” value ([2]; 0.02 mkg/ml)?
Answer: no effect was found

Question: And the “change of pHi” value ([2]; 0.2 mkg/ml)?
Answer: no effect was found

Question: And the “change of pHi” value ([2]; 2.0 mkg/ml, on the average)?
Answer: 0.08 unit pHi

Question: What about the “change of pHi” value ([2]; 20.0 mkg/ml, on the average) of the same compound?
Answer: 0.08 unit pHi

Question: And the “change of pHi” value ([2]; 200 mkg/ml)?
Answer: no effect was found

Question: What about the “change of pHi” value ([2]; 1000 mkg/ml) of the same compound?
Answer: no effect was found

Question: What about the “increase of pHi of cytosol” value ([2]; 0.02 mkg/ml) of the same compound?
Answer: do not initiate a change of pH

Question: And the “increase of pHi of cytosol” value ([2]; 0.2 mkg/ml, on the average)?
Answer: 0.1 unit pH

Question: What about the “increase of pHi of cytosol” value ([2]; 2.0 mkg/ml, on the average) of the same compound?
Answer: 0.12 unit pH

Question: And the “increase of pHi of cytosol” value ([2]; 20.0 mkg/ml)?
Answer: do not initiate a change of pH
